The values below come from publication PMC9320886, “Daily Intraperitoneal Administration of Rosiglitazone Does Not Improve Lung Function or Alveolarization in Preterm Rabbits Exposed to Hyperoxia” (Pharmaceutics, 2022).

The test system of one series is PPARγ. Put plainly: target engagement (TE%) evaluation from unbound plasma concentration and EC50. As for the experimental part:
In a subsequent experimental session, we investigated the pulmonary outcomes of a higher intraperitoneal RGZ dose. To define the RGZ dose, a target engagement (TE%) evaluation was performed based on the unbound plasma and EC50 values for RGZ previously determined in vitro. […] TE% at each time point was calculated according to the following formula.

On the set-up of series [1]: method as in PMID 16617452. Particulars: newborn rats; cited from earlier work.
A short description of series [2]: lung tissue binding by equilibrium dialysis. In kind it is in vitro ADME. Particulars: preterm rabbit lung homogenate, 4 h, 37 °C. The method, then: In vitro lung tissue binding was also determined by equilibrium dialysis as described above. Preterm rabbit lungs (New Zealand White, BIOIVT) were homogenized using a Precellys tissue homogenizer (Bertin instruments, Montigny-le-Bretonneux, France). Precellys lysing vials (CK28-R, Bertin instruments) were filled with lung and buffer according to the following proportion: 1 g of tissue and 5 mL of ice-cold PBS (dilution 1:6). At the end of the homogenization process, a pool of lung homogenate was prepared mixing equal amount of homogenate from three different donors. Test compounds and the positive control were diluted in the pooled lung homogenate to a final concentration of […] and then dispensed into the red chamber of the RED device inserts. PBS was dispensed into the other side. Upon completion of 4 h of incubation (37 °C under shaking), equal aliquots were removed from each chamber and matrix matched with even volumes of lung homogenate or buffer for LC-MS/MS analyses.
Free and Bound percentages of the compounds were calculated as follows:(3) %Free=Area buffer sample/Area lung homogenate sample×100 (4) % Bound=100−%Free
In general terms: In equilibrium dialysis only unbound substance equilibrates across the membrane.

A short description of series [3]: pharmacokinetic profiling in preterm rabbits. In kind it is in vivo, rabbit.
The subject of a further series is premature rabbits. Set-up: method as in PMID 26375032. Particulars: 3 mg/kg i.m. to the mothers 24 and 48 h prior to delivery; cited from earlier work.
[4] abbreviates: rabbit, inhaled or intranasal, lung, intratracheal 1 mg/kg.

Where two headings read alike, the source gives them in different places.

For orientation: Cmax means the highest concentration seen after dosing. For orientation: Tmax means the time from dosing to the highest level. Broadly, the half-life is the time needed for the level to fall by half in the phase considered. One may read the AUC(0-t) as the area under the concentration-time curve up to a stated or last time point. A higher AUC(0-t) goes with high exposure.

On to `CN(CCOc1ccc(CC2SC(=O)NC2=O)cc1)c1ccccn1` (stereo not drawn) [RGZ, rosiglitazone], for which the “target engagement (TE%)” value in the series on PPARγ is 40–60%; with PPARγ (linear scaling model to intraperitoneal 10 mg/kg) it was over 90%; with PPARγ (listed as rosiglitazone), 50%. In series [1], the “plasma levels reported to protect the lungs from hyperoxia” value was 350 ng/mL. The “Lung Tissue Binding (%)” value in series [2] amounted to 94.2 ± 0.7%. Also, the “detectability in plasma and lung” value in series [3] (intratracheal or intraperitoneal 1 mg/kg) was “detectable levels in both compartments up to 24 h”. This compound showed a time of peak in series [3] (plasma and lung tissue, irrespective of the administration method, 1 mg/kg) of 0.25 h. Besides, the concentration in series [3] (setting [4]) peaked (Cmax) at 1070 ng/g. For the same compound, the Tmax in series [3] (setting [4]) came out at 15 min; in series [3] (rabbit, ip, lung, intraperitoneal 1 mg/kg), 15 min. In series [3] (rabbit, inhaled or intranasal, plasma, intratracheal 1 mg/kg), the half-life is 900 min. In series [3] (rabbit, ip, plasma, intraperitoneal 1 mg/kg), the AUC(0-t) worked out at 29500 ng·h/mL. Moreover, in series [3] (rabbit, lung and plasma, inhaled or intranasal, intratracheal 1 mg/kg, read-out: AUCLung/AUCPlasma), the Kp was 0.7. Also, the concentration at 24 h in series [3] (rabbit, plasma and lung, ip, 24 h after intraperitoneal administration, 1 mg/kg, read-out: levels in plasma and lung) was over 500 ng/mL. Besides, in the series with premature rabbits, the “hyperoxic lung injury at PND 7” value is recorded as “attenuated”.
